Legend:
CCR1 = target: T1, CCR1 (Homo sapiens, UniProt P32246); experiment: Term leukocyte chemotaxis towards TL homogenized extracts (LMA), CCR1 inhibition; format: cell-based; settings: increasing concentrations, FIG. 18
T1 construct: Whole blood is collected from a pregnant person into an EDTA-coated collection tube; endogenous in cells; host or cells: total peripheral leukocytes from pregnant women in term labour
T1 sequence (P32246 1-355): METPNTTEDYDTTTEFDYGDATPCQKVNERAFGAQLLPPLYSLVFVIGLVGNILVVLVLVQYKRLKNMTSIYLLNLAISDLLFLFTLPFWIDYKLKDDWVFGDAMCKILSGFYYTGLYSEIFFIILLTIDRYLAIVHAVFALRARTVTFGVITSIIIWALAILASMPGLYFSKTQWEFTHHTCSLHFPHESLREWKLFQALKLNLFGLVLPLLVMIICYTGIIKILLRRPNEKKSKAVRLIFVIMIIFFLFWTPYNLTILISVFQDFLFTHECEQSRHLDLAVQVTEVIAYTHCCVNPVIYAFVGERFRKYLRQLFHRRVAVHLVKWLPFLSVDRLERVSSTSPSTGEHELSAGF
Experimental: (§1) Chemotaxis Assay: Chemoattractants (50 μL) are loaded into the lower wels of a simple, resin 3D printed, 3-well chemotaxis chamber and a polycarbonate filter with 3 μm pores (Neuro Probe Inc., MD, USA) is placed on top of the wells. A silicone gasket with holes for each well is positioned on top of the filter and the upper chamber is lowered onto the silicone gasket, creating a tight seal. Total leukocytes (100 μL) are loaded into the wells of the upper chamber and the apparatus is incubated at 90 min at 37 C in 5% CO2. The apparatus is then disassembled and leukocytes that have migrated through the filter into the lower chamber are quantified using a hemocytometer, flow cytometry or fluorescence spectrometry.
(§2) We will use SB 225002 (CXCR2 antagonist) and J 113863 (CCR1 antagonist), which are commercially available from RND Systems for around USD 200 each. A time course and kinetics experiment will be performed for each antagonist to optimize incubation length and concentration. TL leukocytes (n=6) will be inhibited with each antagonist using these optimized parameters, and the resulting number of leukocytes that undergo chemotaxis to TL chemoattractant in our LMA will be compared to control (i.e. non-treated leukocytes).

CXCR2 = target: T2, CXCR2 (Homo sapiens, UniProt P25025); experiment: Term leukocyte chemotaxis towards TL homogenized extracts (LMA), CXCR2 inhibition; format: cell-based; settings: increasing concentrations, FIG. 18
T2 construct: Whole blood is collected from a pregnant person into an EDTA-coated collection tube; endogenous in cells; host or cells: total peripheral leukocytes from pregnant women in term labour
T2 sequence (P25025 1-360): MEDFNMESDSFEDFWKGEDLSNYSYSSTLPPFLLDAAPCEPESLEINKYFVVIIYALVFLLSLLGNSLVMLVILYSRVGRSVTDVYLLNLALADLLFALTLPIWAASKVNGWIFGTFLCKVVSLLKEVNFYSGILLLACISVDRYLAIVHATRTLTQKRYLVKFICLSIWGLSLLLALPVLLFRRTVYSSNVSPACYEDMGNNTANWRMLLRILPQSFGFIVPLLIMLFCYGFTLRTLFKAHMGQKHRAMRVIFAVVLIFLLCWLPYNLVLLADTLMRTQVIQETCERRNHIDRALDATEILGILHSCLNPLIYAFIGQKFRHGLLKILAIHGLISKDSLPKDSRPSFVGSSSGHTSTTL
Experimental: as §1, §2

Structure (SMILES)	term leukocyte migration (CCR1)	term leukocyte migration (CXCR2)
CC[N+]1(C/C2=C/CCCCCC2)CCC(NC(=O)C2c3cc(Cl)ccc3Oc3ccc(Cl)cc32)CC1.[I-] (centres unmarked) [J113863]	decrease leukocyte migration	–
O=C(Nc1ccc([N+](=O)[O-])cc1O)Nc1ccccc1Br [SB225002]	–	decrease leukocyte migration
